# Patent publication EP4711364A1, “FUSED PYRROLE RING OR FUSED PYRIDINE RING COMPOUND” (Pharmaengine, Inc., priority 2023, dated 2024)
# Experiments:
# [1] = tested on: HCC1569; assay: Cell Proliferation Assay (CellTiter-Glo); format: cell-based; conditions: Homo sapiens, 168 h, CCNE1-amplified breast cancer cell line HCC1569, incubated for 7 days
# Protocol: The sensitivity of cancer cell lines with normal or elevated CCNE1 levels to test compounds was evaluated in a cell proliferation assay. Cell lines were maintained in ATCC-recommended culture media supplemented with 10% FBS and 1% penicillin/streptomycin in a humidified 5% CO2 incubator. All test compounds were stored as 20 mM DMSO stock solutions.
# On Day 0, CCNE1-wild type (wt) and CCNE1-amplified (amp) cells were seeded into 384-well plates and incubated for 16 to 24 hours in a humidified 5% CO2 incubator. On Day 1, test compounds were dispensed into wells at specified concentrations (n=2), with DMSO volume normalized to the highest concentration. Plates with compound-treated cells were incubated for 7 days in a humidified 5% CO2 incubator.
# On Day 7, plates were removed from the incubator and equilibrated to room temperature. Relative inhibition was assessed by adding CellTiter-Glo reagent. Data were plotted as a percentage of the DMSO control for each compound in each cell line. IC50 values were calculated using a four-parameter nonlinear regression model (GraphPad Prism). Table 1: Cell viability data
# [2] = target: T1, NanoLuc-PKMYT1 fusion construct (Homo sapiens, UniProt Q99640); assay: cell-based; format: binding; conditions: HEK293 cell lines transiently expressing NanoLuc-PKMYT1; NanoBRET tracer; test compounds for 2 hours
# T1 construct: expressed in transfected cells; host or cells: HEK293 (transient expression)
# T1 sequence (Q99640 1-499): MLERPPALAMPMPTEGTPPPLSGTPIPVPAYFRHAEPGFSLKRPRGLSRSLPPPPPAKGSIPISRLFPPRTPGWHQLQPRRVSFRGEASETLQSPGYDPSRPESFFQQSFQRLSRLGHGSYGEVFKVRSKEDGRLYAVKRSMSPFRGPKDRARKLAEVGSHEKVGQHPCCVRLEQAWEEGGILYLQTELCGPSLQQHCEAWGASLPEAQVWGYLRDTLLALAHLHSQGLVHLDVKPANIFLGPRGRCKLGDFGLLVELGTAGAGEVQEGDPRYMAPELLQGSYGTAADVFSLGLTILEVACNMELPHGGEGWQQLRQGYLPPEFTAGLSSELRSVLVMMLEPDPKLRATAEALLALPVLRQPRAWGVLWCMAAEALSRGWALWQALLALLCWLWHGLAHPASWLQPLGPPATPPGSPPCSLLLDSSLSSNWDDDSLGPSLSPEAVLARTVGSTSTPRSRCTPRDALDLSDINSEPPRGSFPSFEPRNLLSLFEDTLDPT
# Protocol: HEK293 cell lines transiently expressing the NanoLuc-PKMYT1 fusion construct were seeded into wells of a 3 84-well plate. Cells were pretreated with NanoBRET tracer, then treated with test compounds for 2 hours. BRET signals were measured on an Envision multimode plate reader at 450 nm and 610 nm. IC50 values were calculated, and IC50 curves were plotted using GraphPad Prism with a four-parameter nonlinear regression model.
SMILES,IC50 [1] [nM],IC50 [2] [nM]
Cc1nc2c3c(c1C)C=CNC(=O)c3c(N)n2-c1c(Cl)c(F)cc2[nH]ncc12 [Compound 137],566,22.5
Cc1nc2c3c(c1C)C=CNC(=O)c3c(N)n2-c1c(C)c(F)cc2[nH]ncc12 [Compound 138],> 1000,19.8
Cc1ccc2[nH]ncc2c1-n1c(N)c2c3c(c(C)c(C)nc31)C=CNC2=O [Compound 126],666,5.5
"Cc1cc2c(C(N)=O)c(N)n(-c3c(C)ccc(O)c3C)c2nc1C [Rp6306, reference compound]",18,–
Cc1nc2c3c(c1C)C=CNC(=O)c3c(N)n2-c1c(Cl)cc(F)c2[nH]ncc12 [Compound 136],> 1000,21.6
